# “Also recorded” adds a separate entry of the source. Where no end group is shown, it is not given here.
# Assays:
# [1] = tested on: MCF 7 breast cancer cell line; assay: Induction of apoptosis (APO-ONE caspase 3/7) and cell viability (CellTiter Blue); type: cell-based, human; parameters: key: cell viability decreased (+); or not (−)
# Procedure: MCF-7, MDA-MB-231, MDA-MB-415, MDA-MB-468 were grown in DMEM modified with 10% (v/v) fetal bovine serum, 2 mM L-glutamine and 50 ug/mL each of penicillin and streptomycin.
# (§1) The levels of apoptotic induction and cell viability were determined by multiplexing the measurements for single samples. CellTiter Blue and APO-ONE assay systems from Promega allows the determination of cell viability correlated to cell number, and induction of apoptosis. This protocol uses a fluorgenic peptide that contains a peptide recognition-sequence for caspase 3 and caspase 7, […] proteolytic enzymes of the apoptosis cascade. The CellTiter Blue reagent was added to wells in a 96-well plate containing cells under test, immediately after addition of peptide solution or vehicle. About 5000 cells were plated into the wells the day before. At the chosen time (Day 1, Day 2 etc.) the fluorescence was measured at 590 nm (emission) after excitation at 560 nm. The caspase 3/7 activity was measured (485 nm Ex/527 nm Em) in the same wells after adding 120 uL of the Apo-ONE reagent, freeze fracturing at −80° C. for 1 hr, and incubating for 1 hr at room temperature.
# (§2) For this work, the concentrations of SorC13 and SorC27 used were 0 uM, 1 uM, 10 uM and 100 uM. The experiments extended over a 5 to 7 day period. All measurements were done in quadruplicate with both a blank (no cells) and control (vehicle, no peptide) used to correct the test measurements. The time-response data, and the dose-response data were plotted as means±standard error of the mean. Any statistical comparisons were done with the Student's t-test or by ANOVA analysis over the dose course. The level of statistical significance was considered to be the 95% confidence interval (i.e., p≤0.05).
# To benchmark the effect of both C-type peptides to the gold-standard treatment presently used against breast cancer (Paclitaxel), SorC13, SorC27 and Paclitaxel (10 uM) were compared. Both the APO-ONE assay (Promega) and the CellTiter Blue were used on the panel of breast cancer cell lines. […]
# [2] = tested on: T 47D breast cancer cell line; assay: as above; type: cell-based, human; parameters: key to Decline in cell viability: cell viability decreased (+); or not (−)
# Procedure: T 47D was cultured in RPMI medium (Sigma-Aldrich) modified with 15% fetal bovine serum, 2 mM L-glutamine, 1 mM sodium pyruvate, 0.1 mg/mL bovine insulin and penicillin plus streptomycin mixture (50 ug/mL each).
# as §1, §2
# To benchmark the effect of both C-type peptides to the gold-standard treatment presently used against breast cancer (Paclitaxel), SorC13, SorC27 and Paclitaxel (10 uM) were compared. Both the APO-ONE assay (Promega) and the CellTiter Blue were used on the panel of breast cancer cell lines. The data were compared directly in terms of mean response and tested for significant difference.
# [3] = Clearance route in iv mice; conditions: i.v.
# [4] = Degradation rate in human plasma (HPLC); type: in vitro ADME
# Procedure: Rat plasma was obtained from blood taken from sacrificed rats (Sprague-Dawley) and placed into heparinized glass vials to prevent clotting. Whole blood was centrifuged at 8000×g for 5 minutes to spin down the cells leaving the plasma as supernatant. Human whole blood samples from healthy humans were taken in lithium-heparinized vacuum tubes. The samples were placed into 2.0 mL microcentrifuge tubes and centrifuged at 8000×g for 5 min. The plasma was carefully separated from red blood cells and used immediately.
# Determination of degradation rate of the C-peptides was done by measuring, with the HPLC protocol, the amount of either SorC13 or SorC27 in dosed plasma samples, after time. Sample tubes (500 uL) containing 2 uL of 2 mM Pefabloc were previously prepared for sample delivery SorC13 (1.0 mg) or SorC27 (2.0 mg) were dissolved in 1.0 mL of fresh plasma (37° C.) and placed in an incubating water bath at 37° C. A sample (100 uL) was taken immediately and quenched in sample tubes containing 2 uL of 2 mM Pefabloc, mixed vigorously and immediately frozen at −80° C. This initial sample represented time zero for the run. At successive time intervals of 5 minutes, 100 uL samples were withdrawn, quenched in Pefabloc, mixed, and frozen at −80° C. until analysis.
# The rat plasma degradation rate was determined for the plasma from three different rats, while the rate of degradation in human plasma used six separate plasma samples. The data used were the means (±SEM) and were fitted to a simple one-phase exponential decay model to determine the half-life of the two peptides. This also allowed the calculation of a static degradation rate. FIG. 11 is illustrative of the rate at which SorC27 was degraded in human plasma.
# [5] = tested on: human SKOV3 ovarian cancer tumors; assay: SKOV3 ovarian cancer xenograft, SorC27 versus saline and CAT (Example 14); type: in vivo, NOD/SCID mice
# Procedure: Tumor volumes (V) are calculated by caliper measurement using standard measurements of the width (W), length (L) and thickness (T) of tumors. Animals are randomized into treatment groups so that the median tumor volumes of each group were similar at the start of dosing. % T/C values, as a measure of efficacy, are determined where C refers to volume of control or untreated tumor, and T refers to volume of treated tumor.
# SKOV3 cells were obtained from ATCC, cultured and expanded to suitable numbers to establish xenografts in mice and then formulated into gel pellets and grafted under the renal capsule of surrogate NOD/SCID mice in order to establish the tumors. Tumors are then permitted to develop in vivo until the majority reach 100-200 mm^3 in tumor volume, which typically requires 1-2 weeks following implantation. Once xenografts are established, they are harvested and cut into multiple uniform pieces. Sixteen to eighteen pieces were implanted subcutaneously into each NOD/SCID mouse for experimentation. After 2 days, the animals are treated with either the test peptides or CAT or combinations.
# Mice implanted with SKOV3 cells as detailed above received saline (control), SorC27 (400 mg/kg), by i.p. injection every day for 12 days or CAT injections one every week. The tumor volume and body weights were measured every day. As well, general health of the animals was monitored every day. The results shown in FIG. 12 are presented in terms of tumor load normalized to body weight. […] By Day 12 there was no statistically significant difference between CAT and SorC27 at this dose.
# [6] = Single dose acute intravenous bolus toxicity study with 5-day observation; type: in vivo, CD-1 mice
# Procedure: A single dose acute intravenous bolus injection toxicity study followed by a 5-day observation period in CD-1 mice was performed as described below. Three doses of each of SorC13 and SorC27 were used (10, 100 and 500 mg/Kg). Daily cage-side exams for 5 days with hourly exams for the first 4 hrs post injection. As part of the analysis the following assessments were made: body weights prior to dosing and at termination; all animals were necropsied (including preparation of bone marrow smears); organ weights were taken of all animals.
# After in vivo i.v. injection into CD1 mice, SorC13 caused a small spike (approximately 25%) in blood pressure in the first 15 min which disappeared by 1 hour.
# [7] = 400 mg/kg i.p. every day for 12 days
# [8] = single i.v. 10, 100 and 500 mg/kg
Sequence,Decline in cell viability ([1]; SorC13 1 uM),Decline in cell viability ([1]; SorC13 10 uM),Decline in cell viability ([1]; SorC13 100 uM),Apoptosis Index (1 = no effect) ([2]; SorC13 1 uM),Decline in cell viability ([2]; SorC13 1 uM),Apoptosis Index (1 = no effect) ([2]; SorC13 10 uM),Decline in cell viability ([2]; SorC13 10 uM),induction of apoptosis compared with Paclitaxel (10 uM) ([2]; SorC13 10 uM),Apoptosis Index (1 = no effect) ([2]; SorC13 100 uM),Decline in cell viability ([2]; SorC13 100 uM),Clearance route in iv mice @ 5 mg/kg [3],binding to plasma proteins ([4]; human plasma),"half-life ([4]; human, plasma, 37° C.) [min]","% T/C ratio (mean tumour volume of treated/mean tumour volume of control) [5, 7] [%]","decrease in tumour growth [5, 7] [%]","tumor volume normalized to body weight versus control saline ([5]; over 12 days, SorC27 400 mg/kg i.p. daily, CAT once every week, 400 mg/kg)","Maximum Tolerated Dose in CD-1 mice by single i.v. dose ([6]; 10, 100 and 500 mg/kg doses)","adverse events over 5-day post-injection observation period [6, 8]","necropsy changes in major organ systems [6, 8]"
"KEFLHPSKVDLPR [SorC13, KEFLHPSKVDLPR]",−,−,+,2.0,+,2.8,+,more effective at inducing a faster and more intense apoptotic response,4.3,+,,,,,,,,,
EGKLSSNDTEGGLCKEFLHPSKVDLPR [SorC27],,,,,,,,,,,Rapid via kidney.,doesn't bind to,20,39.9,60.1,greatly reduced tumor volume; also recorded: reduced the tumor volume significantly,No toxic effects,no adverse events,no significant changes in all major organ systems
